Assay results reported in ChEMBL document CHEMBL4330107, “Synthesis and biological evaluation of 3-aryl-4-indolyl-maleimides as potent mutant isocitrate dehydrogenase-1 inhibitors” (Bioorg Med Chem, 2019).
Activity calls are given as the source filed them. No cut-off for these calls is given here.

Columns and labels:
[1] = target: Isocitrate dehydrogenase [NADP] cytoplasmic (Homo sapiens, UniProt O75874, R132H); experiment: Inhibition of recombinant human N-terminal GST-fused IDH1 R132H mutant expressed in Escherichia coli using alpha-ketoglutarate as substrate preincubated for 15 mins followed by substrate addition
[2] = target: T1, Isocitrate dehydrogenase [NADP], mitochondrial (Homo sapiens, UniProt P48735); experiment: Inhibition of recombinant human N-terminal GST-fused wild-type IDH2 using sodium (D)-isocitrate as substrate preincubated for 15 mins followed by substrate addition by fluorescence assay
T1 sequence (P48735 whole entry): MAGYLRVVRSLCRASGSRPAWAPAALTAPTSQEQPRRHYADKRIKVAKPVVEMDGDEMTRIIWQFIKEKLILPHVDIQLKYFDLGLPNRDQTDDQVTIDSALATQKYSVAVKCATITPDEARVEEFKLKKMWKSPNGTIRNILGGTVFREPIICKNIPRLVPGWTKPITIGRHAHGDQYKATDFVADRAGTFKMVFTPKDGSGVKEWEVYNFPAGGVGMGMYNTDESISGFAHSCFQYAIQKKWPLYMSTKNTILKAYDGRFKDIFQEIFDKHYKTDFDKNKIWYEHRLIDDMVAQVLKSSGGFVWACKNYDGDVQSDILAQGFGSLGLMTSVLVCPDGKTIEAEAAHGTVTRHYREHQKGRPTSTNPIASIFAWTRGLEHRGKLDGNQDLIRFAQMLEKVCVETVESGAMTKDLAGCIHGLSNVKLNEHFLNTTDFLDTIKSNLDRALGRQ

[3] = target: Isocitrate dehydrogenase [NADP] cytoplasmic (Homo sapiens, UniProt O75874); experiment: Inhibition of recombinant human N-terminal GST-fused wild-type IDH1 using sodium (D)-isocitrate as substrate by fluorescence assay
[4] = Inhibition of bovine GDH using L-glutamate as substrate measured after 1 hr; set-up: species or system Bos taurus
[5] = target: Isocitrate dehydrogenase [NADP] cytoplasmic (Homo sapiens, UniProt O75874, R132C); experiment: Inhibition of recombinant human N-terminal GST-fused IDH1 R132C mutant expressed in Escherichia coli using alpha-ketoglutarate as substrate preincubated for 15 mins followed by substrate addition
[6] = tested on: Isocitrate dehydrogenase [NADP] cytoplasmic (Homo sapiens), O75874 [R132H]; experiment: Inhibition of human IDH1 R132H mutant expressed in human U87MG cells assessed as reduction in 2-HG production after 48 hrs by LC-MS/MS analysis; format: cell-based
[7] = Inhibition of Fructose-1,6-bisphosphatase expressed in Escherichia coli BL21 (DE3) by glucose-6-phosphate dehydrogenase/phosphoglucoisomerase coupled spectrophotometric method; set-up: species or system Corynebacterium glutamicum
[8] = target: Isocitrate dehydrogenase [NADP] cytoplasmic (Homo sapiens, UniProt O75874, R132L); experiment: Inhibition of recombinant human N-terminal GST-fused IDH1 R132L mutant expressed in Escherichia coli using alpha-ketoglutarate as substrate preincubated for 15 mins followed by substrate addition
Hexokinase-4 = target: T2, Hexokinase-4 (Homo sapiens, UniProt P35557); experiment: Inhibition of recombinant human N-terminal GST-fused glucokinase expressed in Escherichia coli using […] by spectrophotometric assay
T2 sequence (P35557 whole entry): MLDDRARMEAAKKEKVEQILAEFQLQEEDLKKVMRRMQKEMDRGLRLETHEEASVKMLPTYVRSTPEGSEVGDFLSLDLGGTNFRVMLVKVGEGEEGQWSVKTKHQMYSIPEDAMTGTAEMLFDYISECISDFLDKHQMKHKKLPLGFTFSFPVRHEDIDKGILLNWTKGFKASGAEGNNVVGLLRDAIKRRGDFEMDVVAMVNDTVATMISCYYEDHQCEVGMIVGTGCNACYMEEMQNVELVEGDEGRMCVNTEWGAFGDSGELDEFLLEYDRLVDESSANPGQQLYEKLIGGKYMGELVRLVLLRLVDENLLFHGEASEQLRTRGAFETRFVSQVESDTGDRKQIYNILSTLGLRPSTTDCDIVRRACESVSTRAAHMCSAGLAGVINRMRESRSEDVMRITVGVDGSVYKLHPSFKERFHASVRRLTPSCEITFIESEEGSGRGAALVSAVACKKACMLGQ

[9] = tested on: Isocitrate dehydrogenase [NADP] cytoplasmic (Homo sapiens), O75874 [R132H]; experiment: Inhibition of recombinant human N-terminal GST-fused IDH1 R132H mutant expressed in Escherichia coli at 20 ug/ml using alpha-ketoglutarate as substrate preincubated for 15 mins followed by substrate addition relative to control
[10] = tested on: Isocitrate dehydrogenase [NADP] cytoplasmic (Homo sapiens), O75874 [R132H]; experiment: Inhibition of human IDH1 R132H mutant expressed in human U87MG cells assessed as reduction in 2-HG production at 5 to 20 uM after 48 hrs by LC-MS/MS analysis; format: cell-based
[11] = tested on: Isocitrate dehydrogenase [NADP] cytoplasmic (Homo sapiens), O75874 [R132H]; experiment: Inhibition of IDH1 R132H mutant in human TF1 cells assessed as reversal of cell differentiation block by measuring increase in HBG mRNA expression at 5 to 10 uM after 7 days by RT-qPCR analysis; format: cell-based

Isocitrate dehydrogenase [NADP] cytoplasmic (Homo sapiens, UniProt O75874, R132H), sequence (O75874 2-414 R132H limits assumed): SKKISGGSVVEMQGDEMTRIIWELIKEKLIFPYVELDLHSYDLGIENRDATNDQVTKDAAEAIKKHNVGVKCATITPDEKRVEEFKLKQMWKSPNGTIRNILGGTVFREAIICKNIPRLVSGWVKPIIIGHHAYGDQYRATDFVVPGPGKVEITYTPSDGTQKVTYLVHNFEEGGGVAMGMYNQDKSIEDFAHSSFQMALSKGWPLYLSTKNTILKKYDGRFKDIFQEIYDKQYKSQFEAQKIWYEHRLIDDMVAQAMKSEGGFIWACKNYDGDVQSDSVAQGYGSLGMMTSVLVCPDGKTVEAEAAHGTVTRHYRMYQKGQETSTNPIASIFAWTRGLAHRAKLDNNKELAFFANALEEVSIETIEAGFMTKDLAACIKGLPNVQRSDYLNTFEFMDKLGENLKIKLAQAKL
Isocitrate dehydrogenase [NADP] cytoplasmic (Homo sapiens), O75874 [R132H], sequence (O75874 whole entry R132H, the tested form may be a part): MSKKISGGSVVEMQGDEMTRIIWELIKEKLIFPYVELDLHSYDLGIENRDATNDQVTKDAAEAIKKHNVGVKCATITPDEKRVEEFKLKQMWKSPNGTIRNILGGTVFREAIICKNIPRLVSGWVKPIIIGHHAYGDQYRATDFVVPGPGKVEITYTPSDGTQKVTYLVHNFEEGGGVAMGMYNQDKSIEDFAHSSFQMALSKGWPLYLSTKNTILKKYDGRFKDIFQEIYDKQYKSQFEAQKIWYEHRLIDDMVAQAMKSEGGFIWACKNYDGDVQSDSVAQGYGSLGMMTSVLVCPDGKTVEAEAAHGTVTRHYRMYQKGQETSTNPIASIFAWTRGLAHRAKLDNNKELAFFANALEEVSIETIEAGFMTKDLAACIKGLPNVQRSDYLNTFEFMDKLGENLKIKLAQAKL
Isocitrate dehydrogenase [NADP] cytoplasmic (Homo sapiens, UniProt O75874, R132L), sequence (O75874 2-414 R132L limits assumed): as the sequence (O75874 2-414 R132H limits assumed) above, with H131L counted along it
Isocitrate dehydrogenase [NADP] cytoplasmic (Homo sapiens, UniProt O75874, R132C), sequence (O75874 2-414 R132C limits assumed): as the sequence (O75874 2-414 R132H limits assumed) above, with H131C counted along it
Isocitrate dehydrogenase [NADP] cytoplasmic (Homo sapiens, UniProt O75874), sequence (O75874 whole entry, the tested form may be a part): as the sequence (O75874 whole entry R132H, the tested form may be a part) above, with H132R counted along it

For `Cn1nc(C2=C(c3cn(CCCn4ccnc4)c4ccc(Br)cc34)C(=O)NC2=O)c2cccnc21`, the IC50 [1] was 5000 nM.
`Cn1nc(C2=C(c3cn(CCCn4ccnc4)c4cc(Cl)ccc34)C(=O)NC2=O)c2cccnc21` showed an IC50 [2] of over 20000 nM, an IC50 [1] of 140 nM and an IC50 [3] of over 20000 nM. The IC50 [4] was over 20000 nM, the IC50 [5] was 423 nM and the inhibition [6] was “Dose-dependent effect”. The IC50 [7] was over 20000 nM, the IC50 [8] was 307 nM and the IC50 (Hexokinase-4) was over 20000 nM.
Work on `Cn1nc(C2=C(c3cn(CCCn4ccnc4)c4cc(F)ccc34)C(=O)NC2=O)c2cccnc21` yielded an IC50 [2] of over 20000 nM, an IC50 [1] of 90 nM and an IC50 [3] of over 20000 nM. The IC50 [4] was over 20000 nM, the IC50 [5] was 334 nM and the inhibition [6] was “Dose-dependent effect”. It also gave an IC50 [7] of over 20000 nM, an IC50 [8] of 246 nM and an IC50 (Hexokinase-4) of over 20000 nM.
`Cc1ccc2c(C3=C(c4nn(C)c5ncccc45)C(=O)NC3=O)cn(CCCn3ccnc3)c2c1` gave an IC50 [2] of over 20000 nM, an IC50 [1] of 60 nM and an IC50 [3] of over 20000 nM. The IC50 [4] was over 20000 nM, the IC50 [5] was 483 nM and the inhibition [6] was “Dose-dependent effect”. It also gave an IC50 [7] of over 20000 nM, an IC50 [8] of 189 nM and an IC50 (Hexokinase-4) of over 20000 nM.
For `Cn1nc(C2=C(c3cn(CCCN4CCOCC4)c4ccccc34)C(=O)NC2=O)c2cccnc21`, the inhibition [9] was 7.36%.
Compound `Cn1nc(C2=C(c3cn(CCCn4cncn4)c4ccccc34)C(=O)NC2=O)c2cccnc21` has an IC50 [1] of 11900 nM.
In the case of `Cn1cc(C2=C(c3nn(CCCn4ccnc4)c4ncccc34)C(=O)NC2=O)c2ccccc21`, the IC50 [1] is reported as 1280 nM.
`CCCCn1nc(C2=C(c3cn(CCCn4ccnc4)c4ccccc34)C(=O)NC2=O)c2cccnc21` gave an IC50 [1] of 950 nM.
Compound `O=C1NC(=O)C(c2cn(CCCn3ccnc3)c3ccccc23)=C1c1cc[nH]c1` has an IC50 [1] of 1580 nM.
In the case of `Cn1nc(C2=C(c3cn(CCCn4ccnc4)c4ccccc34)C(=O)NC2=O)c2cccnc21`, the IC50 [2] is reported as over 20000 nM, the inhibition [10] is reported as “inactive” and the IC50 [1] is reported as 50 nM. It also gave an IC50 [3] of over 20000 nM, an IC50 [4] of over 20000 nM and an IC50 [5] of 386 nM. The IC50 [7] was over 20000 nM, the IC50 [8] was 398 nM and the IC50 (Hexokinase-4) was over 20000 nM.
Compound `O=C1NC(=O)C(n2cnc3ccccc32)=C1c1cn(CCCn2ccnc2)c2ccccc12` has an IC50 [1] of 7910 nM.
`Cn1nc(C2=C(c3cn(CCn4ccnc4)c4ccccc34)C(=O)NC2=O)c2cccnc21` gave an IC50 [1] of 4420 nM.
With `Cc1ccccc1C(C(=O)NC1CCCCC1)N(C(=O)Cn1ccnc1C)c1cccc(F)c1` (stereo not given) the IC50 [2] was over 20000 nM, the IC50 [1] was 20 nM and the IC50 [3] was over 20000 nM. For the same compound, the IC50 [4] was over 20000 nM, the IC50 [5] was 227 nM and the IC50 [7] was over 20000 nM. For the same compound, the IC50 [8] was 186 nM and the IC50 (Hexokinase-4) was over 20000 nM.
Work on `Cn1nc(C2=C(c3cn(CCCO)c4ccccc34)C(=O)NC2=O)c2cccnc21` yielded an IC50 [1] of 39600 nM.
Compound `CN1C(=O)C(c2cn(CCCn3ccnc3)c3ccccc23)=C(c2nn(C)c3ncccc23)C1=O` has an IC50 [1] of 930 nM.
With `Cn1nc(C2=C(c3c[nH]c4ccccc34)C(=O)NC2=O)c2cccnc21` the inhibition [9] was 38.1%.
`COc1ccc2c(C3=C(c4nn(C)c5ncccc45)C(=O)NC3=O)cn(CCCn3ccnc3)c2c1` gave an IC50 [1] of 190 nM.
`Cn1nc(C2=C(c3cn(CCCn4ccnc4)c4cc(Br)ccc34)C(=O)NC2=O)c2cccnc21` gave an IC50 [2] of over 20000 nM, an IC50 [1] of 60 nM and an IC50 [3] of over 20000 nM. For the same compound, the IC50 [4] was over 20000 nM, the IC50 [5] was 460 nM and the inhibition [11] was “Active”. For the same compound, the inhibition [6] was “Dose-dependent effect”, the IC50 [7] was over 20000 nM and the IC50 [8] was 192 nM. It also gave an IC50 (Hexokinase-4) of over 20000 nM.
In the case of `O=C1NC(=O)C(c2cn(CCCn3ccnc3)c3ccccc23)=C1c1coc2ncccc12`, the IC50 [1] is reported as 2220 nM.
`Cn1cc(C2=C(c3nn(CCCN4CCOCC4)c4ncccc34)C(=O)NC2=O)c2ccccc21` gave an inhibition [9] of 17.3%.
With `Cn1cc(C2=C(c3nn(CCCn4cncn4)c4ncccc34)C(=O)NC2=O)c2ccccc21` the inhibition [9] was 20.6%.
With `O=C1NC(=O)C(n2ccc3cnccc32)=C1c1cn(CCCn2ccnc2)c2ccccc12` the IC50 [1] was 3720 nM.
Compound `Cn1nc(C2=C(c3cn(CCCn4ccnc4)c4cccc(Br)c34)C(=O)NC2=O)c2cccnc21` has an IC50 [1] of 930 nM.
`O=C1NC(=O)C(c2cn(CCCn3ccnc3)c3ccccc23)=C1c1cccc2ccccc12` showed an IC50 [1] of 3050 nM.
Work on `Cc1cccc2c(C3=C(c4nn(C)c5ncccc45)C(=O)NC3=O)cn(CCCn3ccnc3)c12` yielded an IC50 [1] of 290 nM.
`O=C1NC(=O)C(n2nnc3ccccc32)=C1c1cn(CCCn2ccnc2)c2ccccc12` gave an IC50 [1] of 1400 nM.
For `COc1ccc2c(c1)c(C1=C(c3nn(C)c4ncccc34)C(=O)NC1=O)cn2CCCn1ccnc1`, the IC50 [1] was 13600 nM.
`Cn1cc(C2=C(c3cn(CCCn4ccnc4)c4ccccc34)C(=O)NC2=O)c2ccccc21` showed an IC50 [1] of 1480 nM.
For `CCn1nc(C2=C(c3cn(CCCn4ccnc4)c4ccccc34)C(=O)NC2=O)c2cccnc21`, the IC50 [1] was 230 nM.
For `Cn1nc(C2=C(c3cn(CCCn4ccnc4)c4ccc(F)cc34)C(=O)NC2=O)c2cccnc21`, the IC50 [1] was 810 nM.
`Cn1nc(C2=C(c3cn(CCCn4ccnc4)c4ccccc34)C(=O)NC2=O)c2ccccc21` showed an IC50 [1] of 1540 nM.
For `Cn1nc(C2=C(c3cn(CCCCn4ccnc4)c4ccccc34)C(=O)NC2=O)c2cccnc21`, the IC50 [2] was over 20000 nM, the inhibition [10] was “inactive” and the IC50 [1] was 100 nM. For the same compound, the IC50 [3] was over 20000 nM, the IC50 [4] was over 20000 nM and the IC50 [5] was 415 nM. It also gave an IC50 [7] of over 20000 nM, an IC50 [8] of 311 nM and an IC50 (Hexokinase-4) of over 20000 nM.
With `O=C1NC(=O)C(c2cn(CCCn3ccnc3)c3ccccc23)=C1c1ccccc1` the IC50 [1] was 1980 nM.
With `O=C1NC(=O)C(n2ccc3ccncc32)=C1c1cn(CCCn2ccnc2)c2ccccc12` the IC50 [1] was 1450 nM.
